Six compounds from patent US20150031668A1, “CHROMAN DERIVATIVES AS TRPM8 INHIBITORS” (AMGEN INC., priority 2013, published 2015) can be followed below.

The test system of experiment [1] is icilin induced wet-dog shakes. As to the kind of experiment: Inhibition of icilin induced shaking (wet-dog shakes) in rats. In kind it is in vivo, male Sprague Dawley rats. Particulars: po; rat, dose 1 mg/kg. The procedure:
Inhibition of Icilin Induced Shaking in Rats
Example compounds at doses ranging from 0.01 to 3 mg/kg (p.o, suspended in 5% Tween80/Oralplus or suspended in 2% HPMC-1% Tween-80 pH2.2 with MSA, 5 mL/kg) can be administered to male Sprague Dawley rats (200-300 g, Harlan, n=6-8/treatment) 2 h before icilin to assess the ability to block the spontaneous wet-dog shake phenomena induced by icilin (i.p., suspended in 100% PEG400 at 0.5 mg/kg, 1 mL/kg or p.o., suspended in 2% HPMC-1% Tween-80 at 3 mg/kg, 2.5 mL/kg). Spontaneous wet-dog shakes may be counted manually by two blinded observers or using LABORAS automation (Metris) for 30 min post-icilin. The synthesized and prophetic example compounds may be measured using these procedures and will be found to reduce the spontaneous wet dog shake phenomena induced by icilin.

Experiment [2] deals with T1, human TRPM8 (Homo sapiens, UniProt Q7Z2W7).
T1 construct: expressed in transfected cells; host or cells: Chinese hamster ovary (CHO) cells, T-REx tetracycline-inducible expression system (Invitrogen); co-transfected with pcDNA3.1 aequorin
T1 sequence (Q7Z2W7 whole entry): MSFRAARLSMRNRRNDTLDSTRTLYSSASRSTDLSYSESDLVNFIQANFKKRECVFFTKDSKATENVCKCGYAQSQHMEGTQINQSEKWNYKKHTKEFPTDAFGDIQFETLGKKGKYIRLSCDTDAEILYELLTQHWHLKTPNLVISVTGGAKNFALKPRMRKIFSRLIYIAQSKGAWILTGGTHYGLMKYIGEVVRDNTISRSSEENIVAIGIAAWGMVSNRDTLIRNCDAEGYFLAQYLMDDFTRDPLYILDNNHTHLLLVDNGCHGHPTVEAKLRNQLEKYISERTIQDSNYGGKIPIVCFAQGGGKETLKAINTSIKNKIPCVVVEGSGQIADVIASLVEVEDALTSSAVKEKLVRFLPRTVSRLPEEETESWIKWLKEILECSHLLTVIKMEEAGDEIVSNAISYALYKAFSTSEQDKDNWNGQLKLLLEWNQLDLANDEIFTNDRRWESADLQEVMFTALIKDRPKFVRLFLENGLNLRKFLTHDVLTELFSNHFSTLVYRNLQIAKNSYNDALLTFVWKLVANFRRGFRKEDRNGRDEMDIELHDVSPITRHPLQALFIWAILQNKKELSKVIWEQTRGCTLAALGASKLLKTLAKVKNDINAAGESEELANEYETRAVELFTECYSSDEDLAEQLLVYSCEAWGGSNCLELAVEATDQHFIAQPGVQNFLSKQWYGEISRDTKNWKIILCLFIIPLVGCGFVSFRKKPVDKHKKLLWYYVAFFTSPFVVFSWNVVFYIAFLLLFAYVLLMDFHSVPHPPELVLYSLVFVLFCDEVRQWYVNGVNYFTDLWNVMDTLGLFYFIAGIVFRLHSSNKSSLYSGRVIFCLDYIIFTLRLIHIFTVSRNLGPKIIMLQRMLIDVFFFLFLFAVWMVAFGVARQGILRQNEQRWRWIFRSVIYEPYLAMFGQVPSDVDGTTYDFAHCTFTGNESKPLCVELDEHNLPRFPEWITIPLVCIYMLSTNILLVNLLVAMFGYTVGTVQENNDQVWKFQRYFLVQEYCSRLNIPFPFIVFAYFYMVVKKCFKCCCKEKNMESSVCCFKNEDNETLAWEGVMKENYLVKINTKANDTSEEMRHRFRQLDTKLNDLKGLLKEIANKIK
In words: Luminescence readout assay for measuring intracellular calcium (aequorin, CHO cells expressing human TRPM8; icilin, L-menthol or cold activation). The format is cell-based. Particulars: CHO cells expressing human TRPM8, icilin activation (1 μM), aequorin luminescence; read-out: hTRPM8 IC50. The gist of the method: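 Activation was by 1 μM icilin, 100 μM L-menthol (test compound 2.5 min ahead) or cold buffer below 10° C (compound 1 min ahead). Calcium rise measured as aequorin luminescence in CHO cells with tetracycline-inducible human TRPM8.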
In general terms: Calcium assays in cells follow changes in intracellular calcium, usually with a dye or a luminescent sensor.

For orientation: inhibition in vivo means how much of the control response was suppressed. As a reminder, the IC50 is the concentration at which inhibition is half-maximal.

In the case of `O=C(O)c1ccc(C(=O)N[C@]2(c3ccc(OC(F)(F)F)c(F)c3)CCOc3cccnc32)cc1` [Example 204, (S)-4-((4-(3-fluoro-4-(trifluoromethoxy)phenyl)-3,4-dihydro-2H-pyrano[3,2-b]pyridin-4-yl)carbamoyl) benzoic acid], the inhibition in vivo at 1 mg/kg in experiment [1] turned out to be 98%. The IC50 in experiment [2] amounted to 7 nM.
For `O=C(N[C@]1(c2ccc(OC(F)(F)F)c(F)c2)CCOc2cccnc21)c1c[nH]c(=O)cn1` [Example 50, (S)-N-(4-(3-fluoro-4-(trifluoromethoxy)phenyl)-3,4-dihydro-2H-pyrano[3,2-b]pyridin-4-yl)-5-oxo-4,5-dihydropyrazine-2-carboxamide], in that order: 67% and 8 nM.
In experiment [1], `O=C(N[C@]1(c2ccc(OC(F)(F)F)c(F)c2)CCOc2cccnc21)c1ccc(CO)cc1` [Example 158, (S)—N-(4-(3-fluoro-4-(trifluoromethoxy)phenyl)-3,4-dihydro-2H-pyrano[3,2-b]pyridin-4-yl)-4-(hydroxymethyl)benzamide] registered an inhibition in vivo at 1 mg/kg of 92%. For the same compound, the concentration for half-maximal inhibition (IC50) in experiment [2] was 6 nM.
The compound `N#Cc1ccc(-c2ccc([C@@]3(NC(=O)c4ccc5oc(=O)[nH]c5c4)CCOc4cccnc43)cc2)cc1` [Example 155, (S)—N-(4-(4′-cyano-[1,1′-biphenyl]-4-yl)-3,4-dihydro-2H-pyrano[3,2-b]pyridin-4-yl)-2-oxo-2,3-dihydrobenzo[d]oxazole-5-carboxamide 2,2,2-trifluoroacetate] came in with an inhibition in vivo at 1 mg/kg in experiment [1] of 60%. Also, in experiment [2], the IC50 turned out to be 16 nM.
For the compound `O=C(O)c1ccc(C(=O)N[C@]2(c3ccc(OC(F)(F)F)cc3)CCOc3cccnc32)nc1` [Example 327, (S)-6-((4-(4-(trifluoro-methoxy)phenyl)-3,4-dihydro-2H-pyrano[3,2-b]pyridin-4-yl)carbamoyl) nicotinic acid], in experiment [1], at 1 mg/kg the inhibition in vivo was 93%. The concentration for half-maximal inhibition (IC50) in experiment [2] came to 23 nM.
As for `C=Cc1cc(C(=O)N[C@]2(c3ccc(OC(F)(F)F)c(F)c3)CCOc3cccnc32)ccc1C(=O)O` [Example 289, (S)-4-((4-(3-fluoro-4-(trifluoromethoxy)phenyl)-3,4-dihydro-2H-pyrano[3,2-b]pyridin-4-yl)carbamoyl)-2-vinylbenzoic acid], the inhibition in vivo at 1 mg/kg in experiment [1] is 93%. For the same compound, in experiment [2], the IC50 turned out to be 18 nM.
